Experiments:
resistance-trained males [1] = test: Body composition (weight, lean body mass, fat) by dual x-ray absorptiometry, 12-week resistance training study; type: in vivo, human
resistance-trained males [2] = test: Perceived Recovery Status (PRS) scale; type: in vivo, human; conditions: for effect on PRS: 12-week study, vs placebo; for PRS (perceived recovery score): scale of 0-10, Mean ± SEM
Protocol: (§1) Prior to the study, participants were randomly assigned to receive either 3 g per day of HMB Free Acid (HMB) (combined with food-grade orange flavors and sweeteners), 400 mg per day of ATP (PEAK ATP®; TSI, Inc.), a combination of both 3 g of HMB and 400 mg per day of ATP, or a placebo (food-grade orange flavors and sweeteners) divided equally into three servings daily with the first serving given 30 minutes prior to exercise and the remaining two servings daily with the mid-day and evening meals. On the non-training days participants were instructed to consume one serving with each of three separate meals. The supplementation was continued daily throughout the training and testing protocols. Each serving was formulated with 1 gram of HMB free acid to account for fill and emptying variation and achieve a minimum effective dosage of 0.800 grams. This dosage would be equivalent to a 1 gram Ca-HMB dosage.
[…] The PRS scale consists of values between 0-10, with 0-2 being very poorly recovered and with anticipated declines in performance, 4-6 being low to moderately recovered and expected similar performance, and 8-10 representing high perceived recovery with expected increases in performance.

urinary 3-MH:Cr ratio = test: 24 h urinary 3-methylhistidine:creatinine ratio (muscle protein degradation); type: in vivo, human; conditions: Mean ± SEM
Protocol: as §1
Samples were thawed one time and analyzed in duplicate for each analyte. All blood draws were scheduled at the same time of day to negate confounding influences of diurnal hormonal variations. Serum total and free testosterone, cortisol, and C-reactive protein (CRP) were assayed via ELISA kits obtained from Diagnostic Systems Laboratories (Webster, Tex.). All hormones were measured in the same assay on the same day to avoid compounded interassay variance. […] Serum creatine kinase (CK) was measured using colorimetric procedures at 340 nm (Diagnostics Chemicals, Oxford, Conn.). Twenty-four hour urine collections were made and 3-methylhistine was determined by previously described methods (Rathmacher et al 1992 and Wilson et al, 2013).
The rate of muscle protein degradation was evaluated by measuring urinary 3-MH:Cr ratio (Table 6).

resistance-trained males [3] = test: Vertical jump peak power on force platform; type: in vivo, human; conditions: for vertical jump power increase: over the 12-weeks of training; for decrease in vertical jump power during the overreaching cycle: over weeks 9 and 10
Protocol: Measurements of PP were also taken during a vertical jump (VJ) test performed on a multi-component AMTI force platform (Advanced Mechanical Technology, Inc., Watertown, Mass.), interfaced with a personal computer at a sampling rate of 1000 Hz (51). Data acquisition software (LabVIEW, version 7.1; National Instruments Corporation, Austin, Tex.) was used to calculate PP. Peak power was calculated as the peak combination of ground reaction force and peak velocity during the accelerated launch on the platform. The ICC of VJ power was 0.97. Prior to the study, participants were randomly assigned to receive either 3 g per day of HMB Free Acid (HMB) (combined with food-grade orange flavors and sweeteners), 400 mg per day of ATP (PEAK ATP®; TSI, Inc.), a combination of both 3 g of HMB and 400 mg per day of ATP, or a placebo (food-grade orange flavors and sweeteners) divided equally into three servings daily with the first serving given 30 minutes prior to exercise and the remaining two servings daily with the mid-day and evening meals. On the non-training days participants were instructed to consume one serving with each of three separate meals. The supplementation was continued daily throughout the training and testing protocols. […] This dosage would be equivalent to a 1 gram Ca-HMB dosage. All participants performed a high volume resistance training protocol during the 12-week study. The phases of the study and measurements taken are shown in FIG. 1, and the exercise protocols for each phase of the study are shown in Tables 1 to 3. The training was divided into 3 phases, with Phase 1 consisting of daily undulating periodization (weeks 1 to 8), Phase 2 consisting of the overreaching cycle (weeks 9 and 10), and Phase 3 consisting of the taper cycle (weeks 11 and 12).

resistance-trained males [4] = test: Wingate test peak power (maximal cycling); type: in vivo, human; conditions: for Wingate PP gains in power from baseline: after the first week of the increased training (overreaching); for Wingate PP decrease: during the 2-week overreaching cycle
Protocol: Muscle power was assessed during maximal cycling (Wingate Test) and jumping movements. During the cycling test, volunteers were instructed to cycle against a predetermined resistance (7.5% of body weight) as fast as possible for 10 seconds (36). The saddle height was adjusted to the individual's height to produce a 5-10° knee flexion while the foot was in the low position of the central void. A standardized verbal stimulus was provided to each participant. Power output was recorded in real time during the 10-second sprint test, by a computer connected to the standard cycle ergometer (Monark model 894e, Vansbro, Sweden). Peak power (PP) was recorded using Monark Anaerobic Wingate Software, Version 1.0 (Monark, Vansbro, Sweden). The ICC of muscle peak power was 0.96. Prior to the study, participants were randomly assigned to receive either 3 g per day of HMB Free Acid (HMB) (combined with food-grade orange flavors and sweeteners), 400 mg per day of ATP (PEAK ATP®; TSI, Inc.), a combination of both 3 g of HMB and 400 mg per day of ATP, or a placebo (food-grade orange flavors and sweeteners) divided equally into three servings daily with the first serving given 30 minutes prior to exercise and the remaining two servings daily with the mid-day and evening meals. On the non-training days participants were instructed to consume one serving with each of three separate meals. The supplementation was continued daily throughout the training and testing protocols. […] This dosage would be equivalent to a 1 gram Ca-HMB dosage. All participants performed a high volume resistance training protocol during the 12-week study. The phases of the study and measurements taken are shown in FIG. 1, and the exercise protocols for each phase of the study are shown in Tables 1 to 3. The training was divided into 3 phases, with Phase 1 consisting of daily undulating periodization (weeks 1 to 8), Phase 2 consisting of the overreaching cycle (weeks 9 and 10), and Phase 3 consisting of the taper cycle (weeks 11 and 12).

resistance-trained males [5] = test: Skeletal muscle hypertrophy: ultrasonography muscle thickness of quadriceps (VL and VI); type: in vivo, human; conditions: for 12-week increases in quadriceps thicknesses: 12 weeks
[6] = after HMB is fed; cited from earlier work

Nc1ncnc2c1ncn2[C@@H]1O[C@H](COP(=O)(O)OP(=O)(O)OP(=O)(O)O)[C@@H](O)[C@H]1O [ATP, Adenosine-5′-triphosphate]
Lean body mass increase (resistance-trained males [1]; 12-week study): 4.0 ± 0.4 kg | DXA Fat (resistance-trained males [1]; week 0 (baseline)): 19.5 ± 1.8% | DXA LBM (resistance-trained males [1]; week 0 (baseline)): 67.7 ± 2.0 kg | Weight (resistance-trained males [1]; week 0 (baseline)): 85.7 ± 1.7 kg | DXA Fat (resistance-trained males [1]; week 4): 18.1 ± 1.8% | DXA LBM (resistance-trained males [1]; week 4): 70.1 ± 1.9 kg | Weight (resistance-trained males [1]; week 4): 86.9 ± 2.0 kg | DXA Fat (resistance-trained males [1]; week 8): 16.6 ± 1.6% | DXA LBM (resistance-trained males [1]; week 8): 71.4 ± 2.0 kg | Weight (resistance-trained males [1]; week 8): 87.0 ± 2.0 kg | DXA Fat (resistance-trained males [1]; week 12): 16.0 ± 1.5% | DXA LBM (resistance-trained males [1]; week 12): 71.7 ± 1.9 kg | Weight (resistance-trained males [1]; week 12): 87.0 ± 2.1 kg | effect on PRS (resistance-trained males [2]): improved PRS scores after the overreaching cycle at weeks 10 and 12 | PRS (perceived recovery score) (resistance-trained males [2]; week 0 (baseline)): 9.6 ± 0.2 | PRS (perceived recovery score) (resistance-trained males [2]; week 1): 4.9 ± 0.4 | PRS (perceived recovery score) (resistance-trained males [2]; week 4): 7.5 ± 0.3 | PRS (perceived recovery score) (resistance-trained males [2]; week 8): 8.2 ± 0.3 | PRS (perceived recovery score) (resistance-trained males [2]; week 9 (overreaching)): 5.5 ± 0.4 | PRS (perceived recovery score) (resistance-trained males [2]; week 10 (overreaching)): 5.5 ± 0.4 | PRS (perceived recovery score) (resistance-trained males [2]; week 12): 8.6 ± 0.4 | 24 h 3MH:Cr (urinary 3-MH:Cr ratio; week 0 (baseline)): 0.136 ± 0.008 μmol:mg | 24 h 3MH:Cr (urinary 3-MH:Cr ratio; week 1): 0.127 ± 0.007 μmol:mg | 24 h 3MH:Cr (urinary 3-MH:Cr ratio; week 8): 0.143 ± 0.007 μmol:mg | 24 h 3MH:Cr (urinary 3-MH:Cr ratio; week 9 (overreaching)): 0.143 ± 0.008 μmol:mg | 24 h 3MH:Cr (urinary 3-MH:Cr ratio; week 10 (overreaching)): 0.131 ± 0.012 μmol:mg | vertical jump power increase (resistance-trained males [3]): 796±75 watts | decrease in vertical jump power during the overreaching cycle (resistance-trained males [3]): 2.2±0.4% | Wingate PP gains in power from baseline (resistance-trained males [4]): 9.0±1.6% | Wingate PP decrease (resistance-trained males [4]): 2.9±0.7% | 12-week increases in quadriceps thicknesses (resistance-trained males [5]): 4.9±1.0 mm | Quad (quadriceps muscle thickness) (resistance-trained males [5]; week 0 (baseline)): 50.9 ± 0.9 mm | Quad (quadriceps muscle thickness) (resistance-trained males [5]; week 4): 53.4 ± 1.3 mm | Quad (quadriceps muscle thickness) (resistance-trained males [5]; week 8): 54.8 ± 1.7 mm | Quad (quadriceps muscle thickness) (resistance-trained males [5]; week 12): 55.8 ± 1.8 mm

CC(C)(O)CC(=O)O [HMB-FA, β-hydroxy-β-methylbutyric acid]
loss of HMB to urine [6]: 20-50% | Lean body mass increase (resistance-trained males [1]; 12-week study): 7.4 ± 0.4 kg | fat percentage decrease (resistance-trained males [1]; 12-week study): 7.0±0.6% | DXA Fat (resistance-trained males [1]; week 0 (baseline)): 20.4 ± 1.4% | DXA LBM (resistance-trained males [1]; week 0 (baseline)): 66.2 ± 2.6 kg | Weight (resistance-trained males [1]; week 0 (baseline)): 83.1 ± 2.8 kg | DXA Fat (resistance-trained males [1]; week 4): 17.6 ± 1.4% | DXA LBM (resistance-trained males [1]; week 4): 69.2 ± 2.7 kg | Weight (resistance-trained males [1]; week 4): 83.9 ± 2.8 kg | DXA Fat (resistance-trained males [1]; week 8): 15.9 ± 1.5 % | DXA LBM (resistance-trained males [1]; week 8): 71.3 ± 2.7 kg | Weight (resistance-trained males [1]; week 8): 84.8 ± 2.9 kg | DXA Fat (resistance-trained males [1]; week 12): 13.5 ± 1.5 % | DXA LBM (resistance-trained males [1]; week 12): 73.5 ± 2.7 kg | Weight (resistance-trained males [1]; week 12): 85.0 ± 3.0 kg | effect on PRS (resistance-trained males [2]): improved PRS | PRS (perceived recovery score) (resistance-trained males [2]; week 0 (baseline)): 9.1 ± 0.3 | PRS (perceived recovery score) (resistance-trained males [2]; week 1): 6.3 ± 0.3 | PRS (perceived recovery score) (resistance-trained males [2]; week 4): 7.6 ± 0.3 | PRS (perceived recovery score) (resistance-trained males [2]; week 8): 8.5 ± 0.3 | PRS (perceived recovery score) (resistance-trained males [2]; week 9 (overreaching)): 8.0 ± 0.2 | PRS (perceived recovery score) (resistance-trained males [2]; week 10 (overreaching)): 7.7 ± 0.2 | PRS (perceived recovery score) (resistance-trained males [2]; week 12): 9.5 ± 0.2 | 24 h 3MH:Cr (urinary 3-MH:Cr ratio; week 0 (baseline)): 0.127 ± 0.004 μmol:mg | 24 h 3MH:Cr (urinary 3-MH:Cr ratio; week 1): 0.122 ± 0.002 μmol:mg | 24 h 3MH:Cr (urinary 3-MH:Cr ratio; week 8): 0.124 ± 0.008 μmol:mg | 24 h 3MH:Cr (urinary 3-MH:Cr ratio; week 9 (overreaching)): 0.120 ± 0.003 μmol:mg | 24 h 3MH:Cr (urinary 3-MH:Cr ratio; week 10 (overreaching)): 0.141 ± 0.004 μmol:mg | vertical jump power increase (resistance-trained males [3]): 991±51 watts | decrease in vertical jump power during the overreaching cycle (resistance-trained males [3]): 1.4±0.4% | Wingate PP gains in power from baseline (resistance-trained males [4]): 10.2±1.6% | Wingate PP decrease (resistance-trained males [4]): 0.3±0.9% | 12-week increases in quadriceps thicknesses (resistance-trained males [5]): 7.1±1.2 mm | Quad (quadriceps muscle thickness) (resistance-trained males [5]; week 0 (baseline)): 50.7 ± 1.5 mm | Quad (quadriceps muscle thickness) (resistance-trained males [5]; week 4): 53.6 ± 1.4 mm | Quad (quadriceps muscle thickness) (resistance-trained males [5]; week 8): 56.0 ± 1.4 mm | Quad (quadriceps muscle thickness) (resistance-trained males [5]; week 12): 57.8 ± 1.6 mm
